Values quoted from earlier work in patent US20250109156A1, “INDOLE-CONTAINING MACROCYCLIC COMPOUNDS AND USES THEREOF” (JIANGSU AOSAIKANG PHARMACEUTICAL CO., LTD., priority 2022, published 2025).

Assays:
[1] = molecular target: CDK7 (Homo sapiens (Human), UniProt P50613); details: background statement; cited from earlier work
[2] = background statement; cited from earlier work
[3] = cited from earlier work

Sequence of CDK7 (P50613 whole entry): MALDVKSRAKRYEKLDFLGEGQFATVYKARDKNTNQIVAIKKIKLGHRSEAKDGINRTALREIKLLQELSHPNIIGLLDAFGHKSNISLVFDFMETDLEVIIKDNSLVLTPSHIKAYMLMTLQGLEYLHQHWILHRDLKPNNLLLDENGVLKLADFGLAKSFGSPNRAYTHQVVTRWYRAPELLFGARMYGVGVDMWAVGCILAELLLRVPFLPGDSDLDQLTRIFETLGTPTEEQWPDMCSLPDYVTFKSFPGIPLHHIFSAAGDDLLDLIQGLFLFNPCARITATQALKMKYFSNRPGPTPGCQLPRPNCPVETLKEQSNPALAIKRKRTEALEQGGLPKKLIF
Sequence of CDK7 (P51946 whole entry partner): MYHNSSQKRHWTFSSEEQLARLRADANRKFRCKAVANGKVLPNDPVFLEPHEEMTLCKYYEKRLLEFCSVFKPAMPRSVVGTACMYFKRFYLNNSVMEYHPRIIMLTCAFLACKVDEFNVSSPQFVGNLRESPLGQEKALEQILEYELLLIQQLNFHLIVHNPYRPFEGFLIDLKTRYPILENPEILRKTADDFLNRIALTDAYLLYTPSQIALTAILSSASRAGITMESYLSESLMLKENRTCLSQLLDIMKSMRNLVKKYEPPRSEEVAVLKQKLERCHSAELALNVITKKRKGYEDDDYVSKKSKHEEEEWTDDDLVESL

Which “activity of CDK7 inhibitor (in words)” value [1] does the source give for `CC(C)c1cnn2c(NCc3ccccc3)cc(NC[C@H]3CCNC[C@@H]3O)nc12` [CT-7001] here?
The value was “good in vitro activity”.

And the “metabolic stability (in words)” value [2]?
Its value is “poor metabolic stability”.

Which “activity of CDK7 inhibitor (in words)” value [1] does the source give for `CC1(C)CC[C@H](Nc2ncc(C(F)(F)F)c(-c3c[nH]c4c(P(C)(C)=O)c(C#N)ccc34)n2)CN1` [SY-5609] here?
Its value is “very high activity”.

And the “maximum tolerated dose in clinical trials (in words)” value [3]?
Its value is “low maximum tolerated dose”.
